In the CheMixHub ionic liquid set:
Where “and” joins values, the source holds several entries; their conditions need not be identical. Identical values can stand only once.

Experiment: xn = mol fraction of the nth substance listed

CN(CCO)CCO + CC(=O)[O-].CC[n+]1ccn(C)c1
101 kPa, x2 = 0
Details	electrical conductivity [S/m]	viscosity [mPa·s]
288.15 K	0.000224	–
293.15 K	0.00029	–
298.15 K	0.000397	–
303.15 K	0.000528	–
308.15 K	0.000675	–
313.15 K	0.000896	–
318.15 K	0.00113	–
323.15 K	0.00144	–
328.15 K	0.00187	16.9
333.15 K	0.00236	–
338.15 K	0.00295	11.56
343.15 K	0.00365	9.79
348.15 K	0.00455	–
353.15 K	0.00556	–

O + CCCCCCCCCCCCCCCC[n+]1ccccc1.O=C([O-])C(O)c1ccccc1 + NCC(=O)O
101 kPa, x2 = 0, x3 = 0
Details	electrical conductivity [S/m]
293.15 K	0.00012
298.15 K	0.00015
303.15 K	0.00016
308.15 K	0.00017
313.15 K	0.00019

CCCC[n+]1ccn(C)c1.F[B-](F)(F)F + O + NCCO
100 kPa, x1 = 0.2723, x2 = 0.2627
Details	viscosity [mPa·s]
303 K	16.89
308 K	13.81
318 K	9.78
323 K	8.34

CCCC[N+]1(C)CCCC1.N#C[N-]C#N + CCCC[N+]1(C)CCCC1.O=S(=O)([N-]S(=O)(=O)C(F)(F)F)C(F)(F)F + O=S(=O)([N-]S(=O)(=O)C(F)(F)F)C(F)(F)F.[Li+]
electrical conductivity [S/m], 101 kPa, frequency 0 MHz
Details	298 K	303 K	308 K	313 K	318 K	323 K
x2 = 0.475, x1 = 0.475	0.481	0.572	0.67	0.788	0.912	1.05
x2 = 0.5, x1 = 0.5	0.565	0.642	0.746	0.857	0.962	1.12

viscosity [mPa·s], 101 kPa
Details	298 K	303 K	308 K	313 K	318 K	323 K	328 K
x2 = 0.475, x1 = 0.475	60.7	51.9	42.6	35.9	31.2	27.6	24.2
x2 = 0.5, x1 = 0.5	51.3	–	32	26.7	22.7	19.7	17.06

CCCCCCCCn1cc[n+](C)c1.O=S(=O)([N-]S(=O)(=O)C(F)(F)F)C(F)(F)F + O=C1CCCO1
100 kPa, frequency 0.005 MHz
Details	electrical conductivity [S/m]
293.15 K, x2 = 0.5048	0.325
298.15 K, x2 = 0	0.136
298.15 K, x2 = 0.6963	0.703
303.15 K, x2 = 0.9514	0.796
308.15 K, x2 = 0	0.207
313.15 K, x2 = 0.2993	0.401
318.15 K, x2 = 0	0.307
318.15 K, x2 = 0.0997	0.342
318.15 K, x2 = 0.8999	1.5
323.15 K, x2 = 0.2993	0.534
323.15 K, x2 = 0.9514	1.03

CCCC[n+]1ccn(C)c1.F[B-](F)(F)F + CN1CCCC1=O
viscosity, 101 kPa
Details	298.15 K	303.15 K	308.15 K	313.15 K	323.15 K
x1 = 0.0115	2.02 mPa·s	1.88 mPa·s	1.52 mPa·s	1.44 mPa·s	–
x2 = 0	101 mPa·s	81 mPa·s and 84.2 mPa·s	61.5 mPa·s	51.5 mPa·s	35.5 mPa·s
x2 = 0.043	86 mPa·s	73.7 mPa·s	58.1 mPa·s	–	–
x2 = 0.0879	76.3 mPa·s	63.5 mPa·s	51.2 mPa·s	43.1 mPa·s	–
x2 = 0.0999	–	63.2 mPa·s	–	–	–
x2 = 0.2001	–	47.1 mPa·s	–	–	–
x2 = 0.2126	56.9 mPa·s	46.1 mPa·s	36.1 mPa·s	32.5 mPa·s	–
x2 = 0.3028	–	34.7 mPa·s	–	–	–
x2 = 0.388	35.2 mPa·s	25.2 mPa·s	16.5 mPa·s	14.6 mPa·s	–
x2 = 0.4	–	24.58 mPa·s	–	–	–
x2 = 0.5343	21.7 mPa·s	14.8 mPa·s	9.2 mPa·s	6.53 mPa·s	–
x2 = 0.6577	13.1 mPa·s	9.5 mPa·s	6.81 mPa·s	5.38 mPa·s	–
x2 = 0.7001	–	–	–	–	4.6 mPa·s
x2 = 0.7221	9.1 mPa·s	7.8 mPa·s	5.61 mPa·s	5.01 mPa·s	–
x2 = 0.7612	7.67 mPa·s	6.86 mPa·s	6.01 mPa·s	5.33 mPa·s	–
x2 = 0.8524	4.94 mPa·s	4.45 mPa·s	3.99 mPa·s	3.58 mPa·s	–
x2 = 0.9005	3.6 mPa·s	3.27 mPa·s	2.95 mPa·s	2.69 mPa·s	–
x2 = 0.9321	2.96 mPa·s	2.88 mPa·s	2.81 mPa·s	2.09 mPa·s	–
x2 = 0.9743	2.3 mPa·s	2.11 mPa·s	1.93 mPa·s	1.79 mPa·s	–

CCCC[n+]1ccn(C)c1.F[B-](F)(F)F + CC#N
Details	electrical conductivity [S/m]	viscosity [mPa·s]
298.15 K, 100 kPa, x1 = 0.1059	1.25	0.879
298.15 K, 100 kPa, x1 = 0.2213	1.16	2.027
298.15 K, 100 kPa, x1 = 0.3008	1.08	3.372
298.15 K, 100 kPa, x1 = 0.3894	0.782	5.548
298.15 K, 100 kPa, x1 = 0.4432	0.733	7.71
298.15 K, 100 kPa, x1 = 0.6178	0.509	18.74
298.15 K, 100 kPa, x1 = 0.7111	0.374	26.09
298.15 K, 100 kPa, x1 = 0.8146	0.338	41.69
298.15 K, 100 kPa, x1 = 0.9113	0.252	68.51
298.15 K, 100 kPa, x1 = 1	0.243	104.7
298.15 K, 101 kPa, x2 = 0	0.194	116
298.15 K, 101 kPa, x2 = 0.0956	0.278	80
298.15 K, 101 kPa, x2 = 0.2023	0.453	50.9
298.15 K, 101 kPa, x2 = 0.3174	0.672	31
298.15 K, 101 kPa, x2 = 0.4034	0.91	20.9
298.15 K, 101 kPa, x2 = 0.5137	1.34	11.9
298.15 K, 101 kPa, x2 = 0.6131	1.83	6.78
298.15 K, 101 kPa, x2 = 0.7085	2.48	3.78
298.15 K, 101 kPa, x2 = 0.8093	3.1	1.91
298.15 K, 101 kPa, x2 = 0.8631	3.21	1.32
298.15 K, 101.33 kPa, x2 = 0.3999	–	17.6
298.15 K, 101.33 kPa, x2 = 0.7988	–	1.79
298.15 K, 101.33 kPa, x2 = 0.8988	–	0.887
303.15 K, 101 kPa, x2 = 0	–	84.2
303.15 K, 101 kPa, x2 = 0.2034	–	35.6
313.15 K, 101 kPa, x2 = 0.4013	–	11.15
313.15 K, 101 kPa, x2 = 0.6018	–	4.33
323.15 K, 101 kPa, x2 = 0	–	35.5
323.15 K, 101 kPa, x2 = 0.3011	–	12.61
323.15 K, 101 kPa, x2 = 0.5	–	5.7
323.15 K, 101 kPa, x2 = 0.7997	–	1.221
